Measurements taken from patent US20230234938A1 (RHIZEN PHARMACEUTICALS AG, priority 2020, published 2023).
Read-outs that look alike come from different tables or passages of the source.

Experiments:
PARP2 = PARP2 (Homo sapiens, UniProt Q9UGN5); assay: PARP enzyme assay (PARP2); type: biochemical
Source text: Step 2: Ribosylation Reaction

PAR in UWB 1.289 cells = assay: PAR inhibition in UWB 1.289 cells (western blot); type: cell-based, human; settings: for PAR % inhibition in UWB 1.289 @ 10 nM: 0.01 µM; for inhibition at 0.01 µM: Homo sapiens
Procedure: Example-3 UWB 1.289 cells were plated at a predetermined density in a 6-well plate in its respective media and plates were incubated at 37° C. and 5% CO2 overnight. After overnight incubation, the plates were treated with desired concentrations of the compound or DMSO and the plates were incubated at 37° C. and 5% CO2 as required for 24 hours. After completion of 24 hours incubation, total cell lysates were prepared from the treated samples. Lysates were analysed by western-blot analysis and probed with Human PAR specific monoclonal antibody or human specific beta-actin monoclonal antibody (loading control). Western-blot images were developed after exposing them to chemiluminescent substrate and images were captured on imaging system. Target specific bands and loading specific bands were measured using densitometric analysis. Densitometric values of target specific bands were normalized to loading control values. % inhibition of PAR was calculated relative to DMSO treated samples. Results: % inhibitions values are given below in Table-2: […]

PARP1 = PARP1 (Homo sapiens, UniProt P09874); assay: PARP enzyme assay (PARP1, chemiluminescent histone ribosylation); settings: for % inhibition 10 nM / % inhibition 100 nM: PARP enzyme assay; for % inhibition 10 nM: 10 nM compound; for % inhibition 100 nM: 100 nM compound
Procedure: 1) Coat 25 µL of histone solution onto a 384-well plate as described below: • Dilute 5x histone mixture 1:5 with PBS. • Add 25 µL of diluted histone solution to each well and incubate at 4° C. overnight. • Wash the plate three times using 100 µL PBST buffer (1x PBS containing 0.05% Tween20) per well. • Tap plate onto clean paper towel to remove liquid. • Block the wells by adding 100 µL of Blocking buffer 3 to every well. Incubate at room temperature for 1 h 15 minutes. • Wash plate three times with 100 µL PBST buffer as described above. • Tap plate onto clean paper towel to remove liquid.
1) Preparation of 1X PARP Buffer: • Prepare 1x PARP buffer by adding 1 part of 10x PARP buffer to 9 parts distilled water (v/v). To prepare 500 µL of 1X PARP buffer, add 50 µL 10X PARP Assay buffer to 450 µL of H2O and mix well.
2) Preparation of the Ribosylation master mixture: • N wells x (1.25 µL 10x PARP buffer + 1.25 µL 10X PARP Assay mixture + 2.5 µL Activated DNA + 7.5 µL distilled water). Add 12.5 µL to every well.
3) Preparation of the inhibitor solution: • 10 mM stock solution of the inhibitor was prepared in DMSO. From 10 mM stock solution, 250X concentrations of the inhibitor were made in DMSO. • 250X DMSO concentrations of the inhibitor were further diluted to 10X concentrations in 1X kinase buffer. • 2.5 µL (10X concentrations) of kinase buffer containing inhibitor was added to each well. • For the “Positive Control” and “Blank”, add 2.5 µL of kinase buffer containing DMSO (4%) was added. • The final DMSO concentration in the well was 0.4 %.
4) Preparation of the enzyme solution: • Thaw PARP1 enzyme on ice. Upon first thaw, briefly spin tube containing enzyme to recover full content of the tube. Calculate the amount of PARP1 required for the assay and dilute enzyme to 2.0 ng/µL with 1x PARP buffer. • Initiate reaction by adding 10 µL of diluted PARP1 enzyme to the wells designated “Positive Control” and “Test Inhibitor”. • To the wells designated as “Blank”, add 10 µL of 1X PARP buffer. • Centrifuge the plate at 1000 rpm for 30 seconds and incubate at room temperature for 60 min. • Discard the reaction mixture after 1 hour, and wash plate three times with 100 µL PBST buffer and tap plate onto clean paper towel as described above.
1) Preparation of Streptavidin-HRP: • Dilute Streptavidin-HRP 1:50 in Blocking buffer. • Add 25 µL of diluted Streptavidin-HRP to each well. Incubate for 30 min. at room temperature. • Wash three times with 100 µL PBST buffer and tap plate onto clean paper towel as above as described above.
2) Preparation of ECL substrate: • Just before use, mix on ice equal amounts of ELISA ECL Substrate A and ELISA ECL Substrate B and add 50 µL per well. • Immediately read the plate in microtiter-plate in Chemiluminescence setting. The “Blank” value is subtracted from all other values.

[1] = UWB 1.289 cells, 10 nM, 24 hours, western blot relative to DMSO
[2] = read-out: % inhibition 100 nM, PARP enzyme assay, 100 nM compound
[3] = UWB1289, 24 h, read-out: PAR % inhibition in UWB 1.289 @ 10 nM, UWB 1.289 cells, 10 nM, 24 hours, western blot relative to DMSO
[4] = UWB1289, read-out: PAR % inhibition in UWB 1.289 @ 10 nM, UWB 1.289 cells, 10 nM, 24 hours, western blot relative to DMSO

PARP2, sequence (Q9UGN5 whole entry, species assumed): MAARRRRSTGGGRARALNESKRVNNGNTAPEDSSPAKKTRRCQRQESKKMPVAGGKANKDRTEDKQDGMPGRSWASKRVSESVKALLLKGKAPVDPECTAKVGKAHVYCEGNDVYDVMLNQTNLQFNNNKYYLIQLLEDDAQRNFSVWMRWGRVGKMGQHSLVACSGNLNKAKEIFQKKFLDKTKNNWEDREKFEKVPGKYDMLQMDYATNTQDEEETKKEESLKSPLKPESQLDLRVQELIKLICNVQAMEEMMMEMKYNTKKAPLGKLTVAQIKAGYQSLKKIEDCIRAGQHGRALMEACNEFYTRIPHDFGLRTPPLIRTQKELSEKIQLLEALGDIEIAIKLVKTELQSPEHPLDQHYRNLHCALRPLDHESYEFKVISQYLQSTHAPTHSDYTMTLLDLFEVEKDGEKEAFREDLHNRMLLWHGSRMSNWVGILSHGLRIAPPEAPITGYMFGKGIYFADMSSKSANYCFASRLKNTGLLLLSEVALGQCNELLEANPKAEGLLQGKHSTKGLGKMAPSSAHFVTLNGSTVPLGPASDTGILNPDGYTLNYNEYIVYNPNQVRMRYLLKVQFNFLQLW
PARP1, sequence (P09874 whole entry, species assumed): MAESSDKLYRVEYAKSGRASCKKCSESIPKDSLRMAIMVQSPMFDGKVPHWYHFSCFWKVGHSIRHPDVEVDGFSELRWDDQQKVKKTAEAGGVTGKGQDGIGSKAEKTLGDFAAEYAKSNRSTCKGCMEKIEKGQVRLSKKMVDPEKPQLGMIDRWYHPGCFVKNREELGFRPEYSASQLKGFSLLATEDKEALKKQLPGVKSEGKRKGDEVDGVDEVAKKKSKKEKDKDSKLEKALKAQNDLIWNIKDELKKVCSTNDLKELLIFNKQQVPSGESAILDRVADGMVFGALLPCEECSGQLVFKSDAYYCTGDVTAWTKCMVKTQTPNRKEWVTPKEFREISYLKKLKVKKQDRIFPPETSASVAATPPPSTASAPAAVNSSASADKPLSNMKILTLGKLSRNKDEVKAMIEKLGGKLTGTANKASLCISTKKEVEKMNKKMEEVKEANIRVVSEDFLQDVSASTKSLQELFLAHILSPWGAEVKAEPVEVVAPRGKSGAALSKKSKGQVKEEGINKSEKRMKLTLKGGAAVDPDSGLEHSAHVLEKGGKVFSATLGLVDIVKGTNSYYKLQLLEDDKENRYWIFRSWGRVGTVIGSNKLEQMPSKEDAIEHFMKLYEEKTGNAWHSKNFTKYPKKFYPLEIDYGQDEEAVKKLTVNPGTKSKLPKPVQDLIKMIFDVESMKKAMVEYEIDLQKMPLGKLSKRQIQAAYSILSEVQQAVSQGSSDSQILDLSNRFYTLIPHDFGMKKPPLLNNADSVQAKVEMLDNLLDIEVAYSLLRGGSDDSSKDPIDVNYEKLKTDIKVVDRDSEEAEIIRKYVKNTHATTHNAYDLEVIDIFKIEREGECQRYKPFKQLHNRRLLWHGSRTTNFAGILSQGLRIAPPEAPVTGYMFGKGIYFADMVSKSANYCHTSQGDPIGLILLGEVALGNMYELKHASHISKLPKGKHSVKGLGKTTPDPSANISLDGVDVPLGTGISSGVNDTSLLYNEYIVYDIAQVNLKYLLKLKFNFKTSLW

| Structure (SMILES) | IC50 (PARP2) | PAR % inhibition in UWB 1.289 @ 10 nM (PAR in UWB 1.289 cells; [1]) | melting point | IC50 (PARP1) | inhibition at 0.01 µM (PAR in UWB 1.289 cells; [4]) | further results |
| --- | --- | --- | --- | --- | --- | --- |
| CC1(O)C(=O)N(c2cncc(Cc3n[nH]c(=O)c4cc(F)ccc34)c2)c2ccc(F)cc21 (single isomer, unassigned; (-)) [Example 12, (-)-7-Fluoro-4-((5-(5-fluoro-3-hydroxy-3-methyl-2-oxoindolin-1-yl)pyridin-3-yl)methyl)phthalazin-1(2H)-one] | < 10 nM | D (D represents ≤25%) | 154 to 157 °C | – | – | % inhibition 10 nM (PARP1): A (A represents >75% to 100%); % inhibition 100 nM (PARP1): A (A represents >75% to 100%); IC50 (PARP1; read-out: IC50 (nM)-PARP1): < 10 nM |
| CC1(O)C(=O)N(c2cncc(Cc3n[nH]c(=O)c4cc(F)ccc34)c2)c2ccccc21 (single isomer, unassigned; (+)) [Example 7, (+)-7-Fluoro-4-((5-(3-hydroxy-3-methyl-2-oxoindolin-1-yl)pyridin-3-yl)methyl)phthalazin-1(2H)-one] | < 10 nM | A (A represents >75% to 100%) | 148 to 151 °C | – | – | – |
| CC1(O)C(=O)N(c2cncc(Cc3n[nH]c(=O)c4cc(F)ccc34)c2)c2ccc(F)cc21 (single isomer, unassigned; (+)) [Example 11, (+)-7-Fluoro-4-((5-(5-fluoro-3-hydroxy-3-methyl-2-oxoindolin-1-yl)pyridin-3-yl)methyl)phthalazin-1(2H)-one] | < 10 nM | A (A represents >75% to 100%) | 148 to 151 °C | < 10 nM | – | inhibition at 0.01 µM (PARP1; read-out: % inhibition 10 nM, PARP enzyme assay, 10 nM compound): 75 to 100%; inhibition at 0.1 µM (PARP1; [2]): 75 to 100% |
| CC1(O)C(=O)N(c2cc(Cc3n[nH]c(=O)c4cc(F)ccc34)ccn2)c2ccccc21 (single isomer, unassigned; (+)) [Example 23, (+)-7-Fluoro-4-((2-(3-hydroxy-3-methyl-2-oxoindolin-1-yl)pyridin-4-yl)methyl)phthalazin-1(2H)-one] | < 10 nM | D (D represents ≤25%) | 167 to 170 °C | – | – | – |
| C[C@@]1(O)C(=O)N(c2cncc(Cc3n[nH]c(=O)c4ccccc34)c2)c2ccccc21 [Example 3, (S)-(-)-4-((5-(3-Hydroxy-3-methyl-2-oxoindolin-1-yl)pyridin-3-yl)methyl)phthalazin-1(2H)-one] | < 10 nM | – | 94 to 97 °C | < 10 nM | – | inhibition at 0.01 µM (PAR in UWB 1.289 cells; [3]): < 25% |
| O=C1N(c2cncc(Cc3n[nH]c(=O)c4ccccc34)c2)c2ccccc2C1(O)C(F)(F)F (centres unmarked) [Example 25, 4-((5-(3-Hydroxy-2-oxo-3-(trifluoromethyl)indolin-1-yl)pyridin-3-yl)methyl)phthalazin-1(2H)-one] | < 10 nM | – | 258 to 260 °C | < 10 nM | 25 to 50% | inhibition at 0.01 µM (PARP1; read-out: % inhibition 10 nM): 75 to 100%; inhibition at 0.1 µM (PARP1; read-out: % inhibition 100 nM): 75 to 100% |
| CC1(O)C(=O)N(c2cc(Cc3n[nH]c(=O)c4cc(F)ccc34)ccn2)c2ccccc21 (centres unmarked) [Example 21, 7-Fluoro-4-((2-(3-hydroxy-3-methyl-2-oxoindolin-1-yl)pyridin-4-yl)methyl)phthalazin-1(2H)-one] | > 10 nM | – | 187 to 189 °C | – | 25 to 50% | – |
| CC1(O)C(=O)N(c2cncc(Cc3n[nH]c(=O)c4ccccc34)c2)c2ccc(F)cc21 (single isomer, unassigned; (+)) [Example 14, (+)-4-((5-(5-Fluoro-3-hydroxy-3-methyl-2-oxoindolin-1-yl)pyridin-3-yl)methyl)phthalazin-1(2H)-one] | < 10 nM | A (A represents >75% to 100%) | 198 to 201 °C | < 10 nM | – | % inhibition 10 nM (PARP1; 0.01 µM): B (B represents >50% to ≤75%); inhibition at 0.1 µM (PARP1; [2]): 75 to 100% |
| CC1(O)C(=O)N(c2cc(Cc3n[nH]c(=O)c4cc(F)ccc34)ccn2)c2ccccc21 (single isomer, unassigned; (-)) [Example 22, (-)-7-Fluoro-4-((2-(3-hydroxy-3-methyl-2-oxoindolin-1-yl)pyridin-4-yl)methyl)phthalazin-1(2H)-one] | < 10 nM | – | 165 to 168 °C | – | – | inhibition at 0.01 µM (PAR in UWB 1.289 cells; [3]): 25 to 50% |
| CC1(O)C(=O)N(c2cc(Cc3n[nH]c(=O)c4cc(F)ccc34)ccn2)c2ccc(F)cc21 (centres unmarked) [Example 24, 7-Fluoro-4-((2-(5-fluoro-3-hydroxy-3-methyl-2-oxoindolin-1-yl)pyridin-4-yl)methyl)phthalazin-1(2H)-one] | < 10 nM | – | 225 to 228 °C | < 10 nM | 25 to 50% | – |
| CC1(O)C(=O)N(c2cncc(Cc3n[nH]c(=O)c4ccccc34)c2)c2ccccc21 (centres unmarked) [Example 1, 4-((5-(3-Hydroxy-3-methyl-2-oxoindolin-1-yl)pyridin-3-yl)methyl)phthalazin-1(2H)-one] | < 10 nM | – | 110 to 113 °C | < 10 nM | 50 to 75% | inhibition at 0.01 µM (PARP1; read-out: % inhibition 10 nM): 75 to 100%; inhibition at 0.1 µM (PARP1; read-out: % inhibition 100 nM): 75 to 100% |
| CC1(O)C(=O)N(c2cc(Cc3n[nH]c(=O)c4ccccc34)ccn2)c2ccccc21 (single isomer, unassigned; (+)) [Example 20, (+)-4-((2-(3-Hydroxy-3-methyl-2-oxoindolin-1-yl)pyridin-4-yl)methyl)phthalazin-1(2H)-one] | < 10 nM | – | 205 to 208 °C | – | – | inhibition at 0.01 µM (PAR in UWB 1.289 cells; [3]): 50 to 75%; % inhibition 10 nM (PARP1): A (A represents >75% to 100%); % inhibition 100 nM (PARP1): A (A represents >75% to 100%); IC50 (PARP1; read-out: IC50 (nM)-PARP1): < 10 nM |
| CC1(O)C(=O)N(c2cncc(Cc3n[nH]c(=O)c4ccccc34)c2)c2ccc(F)cc21 (single isomer, unassigned; (-)) [Example 15, (-)-4-((5-(5-Fluoro-3-hydroxy-3-methyl-2-oxoindolin-1-yl)pyridin-3-yl)methyl)phthalazin-1(2H)-one] | < 10 nM | D (D represents ≤25%) | 197 to 200 °C | – | – | % inhibition 10 nM (PARP1; 0.01 µM): A (A represents >75% to 100%); % inhibition 100 nM (PARP1): A (A represents >75% to 100%); IC50 (PARP1; read-out: IC50 (nM)-PARP1): < 10 nM |
